Results as given in the NIST ThermoML archive (doi:10.1016/j.jct.2018.09.036).

Assay: mn = molality of the nth substance listed, in mol/kg
Conditions: 298.15 K, 99.7 kPa, Liquid; for viscosity: Falling or rolling sphere viscometry; for mass density: Vibrating tube method

CCCCn1cc[n+](C)c1.[Br-] [1-butyl-3-methylimidazolium bromide] + O
Conditions	mass density [kg/m3]	viscosity [mPa·s]
m1 = 0.15	1004.39	0.922
m1 = 0.3	1011.43	0.974
m1 = 0.45	1018.2	1.028
m1 = 0.6	1024.73	1.084
m1 = 0.7	1028.96	1.121
m1 = 0.8	1033.08	1.164

CCn1cc[n+](C)c1.[Br-] [1-ethyl-3-methylimidazolium bromide] + O
Conditions	mass density [kg/m3]	viscosity [mPa·s]
m1 = 0.15	1004.96	0.899
m1 = 0.3	1012.56	0.93
m1 = 0.45	1019.92	0.961
m1 = 0.6	1027.01	0.992
m1 = 0.7	1031.63	1.013
m1 = 0.8	1036.11	1.036

NCC(=O)O [2-aminoacetic acid] + O
Conditions	mass density [kg/m3]	viscosity [mPa·s]
m1 = 0.1	1000.22	0.902
m1 = 0.15	1001.78	0.908
m1 = 0.2	1003.34	0.914
m1 = 0.25	1004.88	0.92
m1 = 0.3	1006.42	0.927
m1 = 0.35	1007.94	0.934

CCCCCCn1cc[n+](C)c1.[Br-] [3-hexyl-1-methyl-1H-imidazolium bromide] + O
Conditions	mass density [kg/m3]	viscosity [mPa·s]
m1 = 0.15	1003.87	0.947
m1 = 0.3	1010.37	1.018
m1 = 0.45	1016.58	1.093
m1 = 0.6	1022.49	1.169
m1 = 0.7	1026.26	1.221
m1 = 0.8	1029.91	1.273

O [water] + CCCCCCn1cc[n+](C)c1.[Br-]
Conditions	viscosity [mPa·s]
m2 = 0	0.89

O [water] + CCCCn1cc[n+](C)c1.[Br-]
Conditions	viscosity [mPa·s]
m2 = 0	0.89

O [water] + CCn1cc[n+](C)c1.[Br-]
Conditions	viscosity [mPa·s]
m2 = 0	0.89

O [water] + NCC(=O)O
Conditions	viscosity [mPa·s]
m2 = 0	0.89
